Experimental data: patent US10729740B2, “Lytic-peptide-Her2/neu (Human Epidermal growth factor Receptor 2) ligand conjugates and methods of use” (Esperance Pharmaceuticals, Inc., priority 2010, dated 2020)
Ends that are not written are not given here.

What was measured:
[1] = system: Her2 receptor positive SKBR-3 cancer cells; assay: In vitro cytotoxicity, MTT assay, 48 h, SKBR-3
Procedure: (§1) 68) to the antibody at the C-terminus by NRVRRS (SEQ. ID NO. 57) linker). Cytotoxicity was compared to a naked antibody (antibody without a lytic peptide) in Her-2 receptor positive cells (SKBR-3 and SKOV-3, human breast and ovarian cancer cells, respectively) and Her-2 receptor negative breast cancer cells (MDA-MB-231).
(§2) Cells were prepared in 96 well plates using 2,000 cells/well and were allowed to attach for 48 hours. […] All data were processed and analyzed using Graph Pad Prizm 4™ software (Graph Pad Prizm, Inc).

[2] = system: Her2 receptor negative MDA-MB-231 cancer cells; assay: In vitro cytotoxicity, MTT assay, 48 h, MDA-MB-231
Procedure: as §1, §2

[3] = system: Her2 receptor positive SKOV-3 cancer cells; assay: In vitro cytotoxicity, MTT assay, 48 h, SKOV-3
Procedure: as §1, §2

KFAKFAKKFAKFAKKFAK [Phor-18, KFAKFAK KFAKFAK KFAK]
very minimal non-specific cytotoxicity: cytotoxicity to SKBR-3 cells (in words) [1] | cytotoxicity to MDA-MB-231 cells (in words) [2] | cytotoxicity to SKOV-3 cells (in words) [3]
